SMILES strings stand for the structures.

Format in all cases: binding
Test [1] addresses T1, Bcl-b (Homo sapiens, UniProt Q9HD36).
T1 construct: without their C-terminal transmembrane domain; GST; made in house
T1 sequence (Q9HD36 1-182 limits assumed): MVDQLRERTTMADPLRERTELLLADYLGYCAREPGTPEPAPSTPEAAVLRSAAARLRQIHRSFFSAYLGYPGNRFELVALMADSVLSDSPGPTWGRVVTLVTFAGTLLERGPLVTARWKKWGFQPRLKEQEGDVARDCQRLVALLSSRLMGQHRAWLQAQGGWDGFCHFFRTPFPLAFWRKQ
Briefly: Bclb/Bim fluorescence polarization assay (FPA). Particulars: BIM BH3 peptide 5 nM, Bcl-b 40 nM, Ki calculated from FPA data. The text has this: (§1) Compounds were profiled for their ability to disrupt in vitro binding interactions in fluorescence polarization assays (FPAs) using synthetic fluorochrome-labeled Bcl homology 3 (BH3) peptides derived from BIM [(FAM)-Ahx-[…]-NH2 (SEQ ID NO: 1) (GenBank Accession No. O43521)] or BAK [Ac-GQVGRQLAIIGE-LYS(FAM)-INR-NH2 (SEQ ID NO:2) (GenBank Accession No. Q16611) amino acid sequences and four bacterial recombinant proteins [Bcl-b (GenBank Accession No. Q9HD36), Bcl-2 (GenBank Accession No. P10415), Bcl-Xl (GenBank Accession No. Q07817), Mcl-1 (GenBank Accession No. Q07820)] without their C-terminal transmembrane domain. Proteins were purified from bacterial lysates using their glutathione S-transferase (GST)-tag (Bcl-b, Bcl-2, Mcl-1) or His6-tag (Bcl-Xl) and following one-step affinity chromatography procedures. Dissociation constants (Kd) for peptide binding protein were determined by fluorescence polarization in FPAs measuring BIM BH3 peptide binding Bcl-b, Mcl-1 or Bcl-2 protein or BAK BH3 peptide binding Bcl-Xl protein. The Kd values were generated by fitting the experimental data using a sigmoidal dose-response nonlinear regression model.
(§2) Compound inhibitory concentration values, IC50 (50% reduction in fluorescence polarization), were determined using fluorochrome-labeled BH3 peptides and recombinant Bcl proteins in fluorescence polarization assays (FPAs). Compounds diluted in DMSO (0.5 ul) were transferred (in duplicate) to individual wells of a 384-well plate. The fluorochrome-labeled peptide was added followed by recombinant protein addition. Each binding FPA reaction (50 ul) contained BIM BH3 peptide (5 nM) or BAK BH3 peptide (1.5 nM) and Bcl-b (40 nM), Mcl-1 (28 nM), Bcl-2 (11 nM) or Bcl-Xl. (5 nM) protein suspended in assay buffer [20 mM sodium phosphate, pH 7.4, 1 mM EDTA, 50 mM NaCl., 0.05% Pluronic F68]. Reaction mixtures were incubated at ambient temperature for 60 minutes prior to measuring polarization (mP) using an Analyst (LJL, Molecular Devices, Sunnyvale, Calif.) programmed to detect an emission wavelength of 530 nm after excitation (excitation wavelength=485 nm).
(§3) Competitive compound inhibition constants (Ki) were calculated using FPA experimental data and a mathematical equation, Ki=[I]50/([L]50/Kd+[P]0/Kd+1), where [I]50 denotes free inhibitor concentration at 50% inhibition, [L]50 is free labeled ligand concentration at 50% inhibition, [P]0 is free protein concentration at 0% inhibition, and Kd is the dissociation constant of the protein-ligand complex.

The target of test [2] is T2, Mcl-1 (Homo sapiens, UniProt Q07820).
T2 construct: without their C-terminal transmembrane domain; GST; made in house
T2 sequence (Q07820 1-327 limits assumed): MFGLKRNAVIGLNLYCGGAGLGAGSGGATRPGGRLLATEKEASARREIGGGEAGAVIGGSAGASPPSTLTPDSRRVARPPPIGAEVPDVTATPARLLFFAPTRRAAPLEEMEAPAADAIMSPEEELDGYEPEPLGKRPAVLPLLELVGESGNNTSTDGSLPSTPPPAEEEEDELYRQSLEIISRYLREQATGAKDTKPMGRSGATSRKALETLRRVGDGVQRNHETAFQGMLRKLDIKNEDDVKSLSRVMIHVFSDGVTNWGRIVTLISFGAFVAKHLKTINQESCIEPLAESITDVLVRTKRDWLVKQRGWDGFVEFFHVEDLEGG
Briefly: Mcl-1/Bim fluorescence polarization assay (FPA). Particulars: BIM BH3 peptide 5 nM, Mcl-1 28 nM, Ki calculated from FPA data.
Source text: as §1, §2, §3

Test [3] addresses T3, Bcl-2 (Homo sapiens, UniProt P10415).
T3 construct: without their C-terminal transmembrane domain; GST; made in house
Briefly: Bcl2/Bim fluorescence polarization assay (FPA). Conditions: BIM BH3 peptide 5 nM, Bcl-2 11 nM, Ki calculated from FPA data.
Source text: as §1, §2, §3

T3 sequence (P10415 1-211 limits assumed): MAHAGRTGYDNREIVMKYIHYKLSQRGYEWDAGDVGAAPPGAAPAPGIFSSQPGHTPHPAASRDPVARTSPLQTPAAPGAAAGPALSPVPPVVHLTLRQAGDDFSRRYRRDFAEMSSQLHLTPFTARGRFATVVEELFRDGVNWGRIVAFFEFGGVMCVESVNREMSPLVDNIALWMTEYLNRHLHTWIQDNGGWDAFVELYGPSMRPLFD

For orientation: Ki means the dissociation constant of the complex between target and ligand, obtained from inhibition or displacement. In the case of `O=C(c1cccc(CN(Cc2ccc(F)cc2)S(=O)(=O)c2cc(Cl)cc(Cl)c2O)c1)N(Cc1ccc(F)cc1)Cc1cc(Cl)cc(Cl)c1` [Example 95, 3-((3,5-Dichloro-N-(4-fluorobenzyl)-2-hydroxyphenylsulfonamido)methyl)-N-(3,5-dichlorobenzyl)-N-(4-fluorobenzyl)benzamide], the Ki is 0.06 µM in test [1], 0.07 µM in test [2] and 0.12 µM in test [3].

Turning to `O=S(=O)(c1cc(Cl)cc(Cl)c1O)N(Cc1ccc(F)cc1)Cc1ccc(CN(Cc2ccc(F)cc2)S(=O)(=O)c2cc(Cl)cc(Cl)c2O)cc1` [Example 96, N-(4-Fluoro-benzyl)-N-(4-{[(4-fluoro-benzyl)-(3,5-dichloro-2-hydroxybenzene)sulfonyl-amino]-methyl}-benzyl)-3,5-dichloro-2-hydroxybenzenesulfonamide], the Ki in test [1] was 0.06 µM; in test [2], 0.01 µM; in test [3], 0.11 µM.

As for `CC(C)CN(Cc1ccc(CN(CC(C)C)S(=O)(=O)c2cc(Cl)cc(Cl)c2O)cc1)S(=O)(=O)c1cc(Cl)cc(Cl)c1O` [Example 97, N-Isobutyl-N-{4-[(isobutyl-(3,5-dichloro-2-hydroxybenzene)sulfonyl-amino)-methyl]-benzyl}-(3,5-dichloro-2-hydroxybenzene)sulfonamide], the inhibition constant Ki in test [1] was 0.07 µM; in test [2] it was 0.1 µM; in test [3], 0.11 µM.

Take `O=S(=O)(NCc1ccc(CN(Cc2ccc(F)cc2)S(=O)(=O)c2cc(Cl)cc(Cl)c2O)cc1)c1cc(Cl)cc(Cl)c1` [Example 98, 3,5-Dichloro-N-(4-((3,5-dichlorophenylsulfonamido)methyl)benzyl)-N-(4-fluorobenzyl)-2-hydroxybenzenesulfonamide]: the results for the Ki in test [1], in test [2] and in test [3] were 0.16 µM, 0.28 µM and 0.23 µM, respectively.

Turning to `O=C(c1ccc(CN(Cc2ccc(F)cc2)S(=O)(=O)c2cc(Cl)cc(Cl)c2O)cc1)N(Cc1ccc(F)cc1)Cc1cc(Cl)cc(Cl)c1` [Example 106, 4-((3,5-Dichloro-N-(4-fluorobenzyl)-2-hydroxyphenylsulfonamido)methyl)-N-(3,5-dichlorobenzyl)-N-(4-fluorobenzyl)benzamide], the Ki in test [1], in test [2] and in test [3] was 0.04 µM in each case.

Regarding `CC(C)N(Cc1ccccc1)C(=O)c1ccc(CN(Cc2ccc(F)cc2)S(=O)(=O)c2cc(Cl)cc(Cl)c2O)cc1` [Example 107, N-Benzyl-4-((3,5-dichloro-N-(4-fluorobenzyl)-2-hydroxyphenylsulfonamido)methyl)-N-isopropylbenzamide], the Ki in test [1] is 0.21 µM; in test [2], 0.52 µM; in test [3], 0.48 µM.

As to `O=C(c1ccc(CN(Cc2ccc(F)cc2)S(=O)(=O)c2cc(Cl)cc(Cl)c2O)cc1)N1CCCCC1` [Example 130], the values for the inhibitory constant (Ki) in test [1], in test [2] and in test [3] were 0.44 µM, 2.06 µM and 0.84 µM, respectively.

For the compound `CC(C)CCNC(=O)c1ccc(CN(Cc2ccc(F)cc2)S(=O)(=O)c2cc(Cl)cc(Cl)c2O)cc1` [Example 135, 4-((3,5-Dichloro-N-(4-fluorobenzyl)-2-hydroxyphenylsulfonamido)methyl)-N-isopentylbenzamide], the inhibition constant (Ki) in test [1] was 0.28 µM; in test [2], 0.49 µM; in test [3] it was 0.61 µM.

For `CN(CCc1ccccc1)C(=O)c1ccc(CN(Cc2ccc(F)cc2)S(=O)(=O)c2cc(Cl)cc(Cl)c2O)cc1` [Example 137, 4-((3,5-Dichloro-N-(4-fluorobenzyl)-2-hydroxyphenylsulfonamido)methyl)-N-methyl-N-phenethylbenzamide], the values for the Ki in test [1], in test [2] and in test [3] were 0.22 µM, 0.48 µM and 0.25 µM, respectively.

On to `CCCCNC(=O)c1ccc(CN(Cc2ccc(F)cc2)S(=O)(=O)c2cc(Cl)cc(Cl)c2O)cc1` [Example 138, N-Butyl-4-((3,5-dichloro-N-(4-fluorobenzyl)-2-hydroxyphenylsulfonamido)methyl)-benzamide], for which the Ki is 0.45 µM in test [1], 1.76 µM in test [2] and 0.82 µM in test [3].

In the case of `O=C(c1ccc(CN(Cc2ccc(F)cc2)S(=O)(=O)c2cc(Cl)cc(Cl)c2O)cc1)N1CCN(c2cnccn2)CC1` [Example 140, 3,5-Dichloro-N-(4-fluorobenzyl)-2-hydroxy-N-(4-(4-(pyrazin-2-yl)piperazine-1-carbonyl)benzyl)benzenesulfonamide], the results for the inhibition constant (Ki) in test [1], in test [2] and in test [3] were 0.5 µM, 1.73 µM and 0.66 µM, respectively.

Turning to `O=C(N[C@H]1C[C@@H]1c1ccccc1)c1ccc(CN(Cc2ccc(F)cc2)S(=O)(=O)c2cc(Cl)cc(Cl)c2O)cc1` [Example 143, 4-((3,5-Dichloro-N-(4-fluorobenzyl)-2-hydroxyphenylsulfonamido)methyl)-N-((1S,2R)-2-phenylcyclopropyl)benzamide], the results for the Ki in test [1], in test [2] and in test [3] were 0.17 µM, 0.45 µM and 0.37 µM, respectively.

For the compound `NS(=O)(=O)c1ccc(CNC(=O)c2ccc(CN(Cc3ccc(F)cc3)S(=O)(=O)c3cc(Cl)cc(Cl)c3O)cc2)cc1` [Example 147, 4-((3,5-Dichloro-N-(4-fluorobenzyl)-2-hydroxyphenylsulfonamido)methyl)-N-(4-sulfamoylbenzyl)benzamide], the Ki in test [1] was 0.45 µM; in test [2], 1.73 µM; in test [3], 0.96 µM.

For the compound `CN(C)c1ccc(CNC(=O)c2ccc(CN(Cc3ccc(F)cc3)S(=O)(=O)c3cc(Cl)cc(Cl)c3O)cc2)cc1` [Example 150, 4-((3,5-Dichloro-N-(4-fluorobenzyl)-2-hydroxyphenylsulfonamido)methyl)-N-(4-(dimethylamino)benzyl)benzamide], the figures for the Ki in test [1], in test [2] and in test [3] were 0.2 µM, 0.46 µM and 0.44 µM, respectively.

Take `O=C(c1ccc(N(Cc2ccc(F)cc2)S(=O)(=O)c2cc(Cl)cc(Cl)c2O)cc1)N(Cc1ccc(F)cc1)Cc1cc(Cl)cc(Cl)c1` [Example 175, 4-(3,5-Dichloro-N-(4-fluorobenzyl)-2-hydroxyphenylsulfonamido)-N-(3,5-dichlorobenzyl)-N-(4-fluorobenzyl)benzamide]: the Ki was 0.06 µM in test [1], 0.03 µM in test [2] and 0.04 µM in test [3].

With `O=S(=O)(c1cc(Cl)cc(Cl)c1)N(CCO)Cc1ccc(CN(Cc2ccc(F)cc2)S(=O)(=O)c2cc(Cl)cc(Cl)c2O)cc1` [Example 176], the inhibition constant Ki is 0.18 µM in test [1], 0.48 µM in test [2] and 0.44 µM in test [3].

`CC(C)CN(Cc1cccc(CN(Cc2ccc(-c3ccc(F)cc3)cc2)S(=O)(=O)c2cc(Cl)cc(Cl)c2O)c1)C(=O)c1ccc2[nH]c(=O)c(=O)[nH]c2c1` [Example 190, N-(3-((3,5-Dichloro-N-((4′-fluorobiphenyl-4-yl)methyl)-2-hydroxyphenylsulfonamido)methyl)-benzyl)-N-isobutyl-2,3-dioxo-1,2,3,4-tetrahydroquinoxaline-6-carboxamide]: the inhibitory constant (Ki) in test [1] was 0.15 µM; in test [2], 0.55 µM; in test [3], 0.18 µM.

As for `CC(C)CN(Cc1cccc(CN(Cc2ccc(-c3ccc(F)cc3)cc2)S(=O)(=O)c2cc(Cl)cc(Cl)c2O)c1)C(=O)c1nc2ccccc2s1` [Example 191, N-(3-((3,5-Dichloro-N-((4′-fluorobiphenyl-4-yl)methyl)-2-hydroxyphenylsulfonamido)methyl)-benzyl)-N-isobutylbenzo[d]thiazole-2-carboxamide], the inhibition constant Ki in test [1] was 0.18 µM; in test [2], 0.53 µM; in test [3] it was 0.11 µM.

Values taken from patent US8501992B2, “Hydroxyphenyl sulfonamides as antiapoptotic bcl inhibitors” (Bristol-Myers Squibb Company, priority 2008, dated 2013).
